Source: paper PMC6017000, “Distribution Assessments of Coumarins from Angelicae Pubescentis Radix in Rat Cerebrospinal Fluid and Brain by Liquid Chromatography Tandem Mass Spectrometry Analysis” (Molecules : A Journal of Synthetic Chemistry and Natural …, 2018)
Like-named read-outs stand apart in the source and are kept apart here.

Experiments:
in vitro BBB model = test system: in vitro BBB model; set-up: method as in PMID 26121397; details: based on bidirectional Papp values; cited from earlier work
[1] = Rat brain distribution after oral administration of APRE (UPLC-MS/MS); details: for log BBexpt.: log (AUC0→∞/brain/AUC0→∞/plasma), oral APRE; for log BBexpt. / Tmax / half-life: rat; for AUC0→t / AUC0→∞ / CLz/F / Vz/F: rat brain, oral APRE 4 g/kg, mean ± SD, n = 6; for Tmax / half-life: brain, po, 4 g/kg
Procedure: (§1) Each weighed brain sample was homogenized with a 2-fold volume of normal saline solution. IS solution (10 μL, 200 ng/mL) was added to 300 μL of the homogenate. The mixture was then extracted with a 3-fold volume of ethyl acetate. The mixture was vortexed for 1 min and centrifuged at 16,000× g for 10 min. The supernatant was transferred out and dried under a gentle constant flow of nitrogen. The residue was then dissolved with 100 μL of MeOH and ultrasonically (power 250 W, frequency 40 KHz) extracted for 10 min. After centrifugation at 16,000× g for 10 min, the supernatant was drawn out into a clean vial, and 5 μL of each were injected into the UPLC–MS/MS system for analysis.
(§2) The UPLC-MS/MS system consisted of a Shimadzu Nexera UPLC instrument connected to a Shimadzu LCMS-8050 mass spectrometer via the electrospray ionization interface (Shimadzu Corp., Kyoto, Japan). Samples were separated on an ACQUITY UPLC BEH RP18 column (2.1 × 100 mm, 1.7 µm, Waters, Milford, MA, USA) equipped with a BEH RP18 guard column (2.1 × 5 mm, 1.7 µm, Waters, Milford, MA, USA). The column temperature was 30 °C, and the flow rate was 0.4 mL/min. The sample injection volume was 5 µL. The mobile phases consisted of 0.1% (v/v) formic acid in water (A) and ACN (B). The LC gradient elution program and mass working parameters were the same as our previous report [6]. […] The precursor ion, product ion, Q1, Q3, CE and DT were optimized.
(§3) The time schedule included 9 time-points, and six rats were sampled at each time-point. The rats were fasted overnight with free access to water before the experiment. APRE was suspended with the normal saline and orally administered to the rats at a single dose of 4 g/kg. The animals had free access to water during the experiment.
(§4) Cardiac perfusion was carried out quickly with physiological saline after CSF collection at each time-point. The rat brains were separated, weighed and then stored at −80 °C until treatment.
(§5) Results were expressed as the mean ± standard deviation (SD). The UPLC-MS/MS data were processed with Labsolutions 5.65 software (Shimadzu Corp., Kyoto, Japan). The pharmacokinetic parameters were calculated with the Drug and Statistics 2.0 software (Mathematical Pharmacology Professional Committee of China, Shanghai, China).

[2] = Rat CSF distribution after oral administration of APRE (UPLC-MS/MS)
Procedure: (§6) Aliquots of 50 μL CSF samples with IS (10 μL, 200 ng/mL) were extracted with 600 μL ethyl acetate.
(§7) The UPLC-MS/MS system consisted of a Shimadzu Nexera UPLC instrument connected to a Shimadzu LCMS-8050 mass spectrometer via the electrospray ionization interface (Shimadzu Corp., Kyoto, Japan). Samples were separated on an ACQUITY UPLC BEH RP18 column (2.1 × 100 mm, 1.7 µm, Waters, Milford, MA, USA) equipped with a BEH RP18 guard column (2.1 × 5 mm, 1.7 µm, Waters, Milford, MA, USA). The column temperature was 30 °C, and the flow rate was 0.4 mL/min. The sample injection volume was 5 µL. The mobile phases consisted of 0.1% (v/v) formic acid in water (A) and ACN (B). […] The precursor ion, product ion, Q1, Q3, CE and DT were optimized.
as §3
(§8) Rats were anesthetized by an intraperitoneal dose of chloral hydrate (350 mg/kg) at 0.25, 0.5, 1, 1.5, 2, 4, 6, 8, 12 h after oral administration of APRE. A dorsal midline cutaneous incision was made, and the muscle at the craniocervical junction was bluntly dissected to expose the atlanto-occipital membrane. The cisterna magna was punctured with a thin syringe needle, and a microinjector connected with the needle was used to collect the interior CSF carefully [27]. Clear CSF was transferred to a clean microtube and frozen at −80 °C until further use. Blood contaminated samples were excluded.
as §5

[3] = Stability of QC samples in rat brain homogenate (freeze-thaw, room temperature); assay type: physicochemical; details: percentage remaining, n = 5; for Stability room temperature: room temperature 24 h; for Stability Freeze-thaw: three freeze-thaw cycles
[4] = set-up: method as in PMID 28654868; details: rat plasma, oral APRE; cited from earlier work
[5] = Stability of QC samples in aCSF (freeze-thaw, room temperature); assay type: physicochemical; details: percentage remaining, n = 5; for Stability room temperature: room temperature 24 h; for Stability Freeze-thaw: three freeze-thaw cycles
[6] = rat, in vivo, po
Procedure: as §6, §7, §3, §8, §5

[7] = rat, in vivo, po; remark: listed apart in the source
Procedure: as §1, §2, §3, §4, §5

log BBexpt. [1]	AUC0→t [1] [µg·h/kg]	AUC0→∞ [1] [µg·h/kg]	CLz/F [1] [g/h/kg]	Vz/F [1] [g/kg]	Tmax [1] [h]	half-life [1] [h]	Stability room temperature ([3]; rat brain QC 5 ng/mL) [%]	Stability Freeze-thaw ([3]; rat brain QC 5 ng/mL) [%]	Stability room temperature ([3]; rat brain QC 80 ng/mL) [%]	Stability Freeze-thaw ([3]; rat brain QC 80 ng/mL) [%]	Stability room temperature ([3]; rat brain QC 160 ng/mL) [%]	Stability Freeze-thaw ([3]; rat brain QC 160 ng/mL) [%]	Compound	further results
−0.16	15.51 ± 4.82	21.56 ± 14.56	52.86 ± 24.79	245.44 ± 108.54	0.33 ± 0.13	3.54 ± 1.35	91.59±10.74	104.96±13.66	88.65±10.02	93.10±4.03	86.85±3.37	89.68±3.96	CC(C)=CCOc1c2ccoc2cc2oc(=O)ccc12 [Compound 4, isoimperatorin]	absorption classification across the in vitro BBB model (in vitro BBB model): moderately-absorbed; MRM response in CSF ([2]; rat CSF after oral APRE): under LLOQ
−0.44	21.06 ± 8.70	25.06 ± 8.03	301.26 ± 92.33	1299.16 ± 842.00	0.29 ± 0.1	2.77 ± 1.15	96.24±7.79	101.51±11.81	97.77±8.23	95.20±9.40	96.20±7.07	102.98±8.06	CC=C(C)C(=O)OC(C(O)c1cc2ccc(=O)oc2cc1OC)C(C)(C)O (centres unmarked) [Compound 9, angelol B]	total amount percentage of CSF/plasma ([2]; (0.48 × AUC0→∞/CSF)/(16 × AUC0→∞/plasma), rat, oral APRE): greater than 1%; AUC(0-inf) ([2]; rat, CSF, po, 4 g/kg): 28.2 ± 3.94 ng·h/mL; AUC(0-t) ([2]; rat, CSF, po, 4 g/kg): 20 ± 3.35 ng·h/mL; Cmax ([2]; rat, CSF, po, 4 g/kg): 7.65 ± 4.14 ng/mL; Tmax ([2]; rat, CSF, po, 4 g/kg): 0.38 ± 0.31 h; half-life ([2]; rat, CSF, po, 4 g/kg): 7.02 ± 2.51 h; CL in plasma [4]: 110.26 ± 39.27 g/h/kg; t1/2 in plasma [4]: 6.63 ± 4.37 h; Stability room temperature ([5]; aCSF QC 5 ng/mL): 97.45±4.87%; Stability Freeze-thaw ([5]; aCSF QC 5 ng/mL): 95.14±6.53%; Stability room temperature ([5]; aCSF QC 40 ng/mL): 95.67±3.47%; Stability Freeze-thaw ([5]; aCSF QC 40 ng/mL): 95.36±7.29%; Stability room temperature ([5]; aCSF QC 80 ng/mL): 96.66±9.22%; Stability Freeze-thaw ([5]; aCSF QC 80 ng/mL): 96.89±4.68%
													CC(C)=CCOc1c2occc2cc2ccc(=O)oc12 [imperatorin]	MRM response in CSF [6]: under LLOQ; MRM response in brain [7]: under LLOQ
